{"source": "patent US20100267561A1", "about": "“HERBICIDAL PYRIDAZINONE DERIVATIVES” (priority 2007, published 2010)", "format_in_all_cases": "in vivo", "key": {"[1]": {"test_system": "morningglory (Ipomoea coccinea)", "assay": "Test A pre-/postemergence plant response", "settings": "1000 g ai/ha", "outline": "(§1)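 Soil: loam blended with sand. Formulation: non-phytotoxic solvent mixture plus surfactant, applied as preemergence directed soil spray and as postemergence spray. Scoring: visual, 0 no effect to 100 complete control, roughly 10 days post-treatment in greenhouse.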"}, "[2]": {"test_system": "pigweed (Amaranthus retroflexus)", "assay": "Test A pre-/postemergence plant response", "settings": "1000 g ai/ha; for pest or weed control at 1000 g/ha: Amaranthus retroflexus, 240 h, read-out: Plant response rating, Pigweed", "outline": "as §1"}, "[3]": {"test_system": "giant foxtail (Setaria faberi)", "assay": "Test A pre-/postemergence plant response", "settings": "1000 g ai/ha; for pest or weed control at 1000 g/ha: Setaria faberi, 240 h, read-out: Plant response rating, Foxtail, Giant", "outline": "as §1"}, "[4]": {"test_system": "large crabgrass (Digitaria sanguinalis)", "assay": "Test A pre-/postemergence plant response", "settings": "1000 g ai/ha; for pest or weed control at 1000 g/ha: Digitaria sanguinalis, 240 h, read-out: Plant response rating, Crabgrass, Large", "outline": "as §1"}, "[5]": {"test_system": "wheat (Triticum aestivum)", "assay": "Test A pre-/postemergence plant response", "settings": "1000 g ai/ha; for plant injury at 1000 g/ha: Triticum aestivum, 240 h, read-out: Plant response rating, Wheat", "outline": "as §1"}, "[6]": {"test_system": "barnyardgrass (Echinochloa crus-galli)", "assay": "Test A pre-/postemergence plant response", "settings": "1000 g ai/ha; for pest or weed control at 1000 g/ha: Echinochloa crus-galli, 240 h, read-out: Plant response rating, Barnyardgrass", "outline": "as §1"}, "[7]": {"test_system": "velvetleaf (Abutilon theophrasti)", "assay": "Test A pre-/postemergence plant response", "settings": "1000 g ai/ha", "outline": "as §1"}, "corn (Zea mays)": {"test_system": "corn (Zea mays)", "assay": "Test A pre-/postemergence plant response", "settings": "1000 g ai/ha; for Corn plant response rating (crop injury, 0 = no effect, 100 = complete kill) at 1000 g/ha: Zea mays, 240 h", "outline": "as §1"}, "[8]": {"test_system": "umbrella sedge (Cyperus difformis)", "assay": "Test B flooded paddy test plant response", "outline": "(§2)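 Paddy-water application to 2-leaf plants in pots held under 3 cm of flooding; response is a 0–100 visual control rating against controls after 13 to 15 days, and a dash marks a missing result.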"}, "[9]": {"test_system": "ducksalad (Heteranthera limosa)", "assay": "Test B flooded paddy test plant response", "outline": "as §2"}, "rice (Oryza sativa)": {"test_system": "rice (Oryza sativa)", "assay": "Test B flooded paddy test plant response", "outline": "as §2"}, "[10]": {"test_system": "barnyardgrass (Echinochloa crus-galli)", "assay": "Test B flooded paddy test plant response", "outline": "as §2"}, "[11]": {"settings": "Postemergence, 0 to 100 scale, 0 no effect, 100 complete control"}, "[12]": {"settings": "Preemergence, 0 to 100 scale (0 no effect, 100 complete control)"}, "[13]": {"settings": "post-emergence, Postemergence, 0 to 100 scale, 0 no effect, 100 complete control"}, "[14]": {"settings": "pre-emergence, Preemergence, 0 to 100 scale (0 no effect, 100 complete control)"}, "[15]": {"settings": "Flood (flooded paddy test), 62 g ai/ha, scale 0 to 100, 0 no effect, 100 complete control"}, "[16]": {"settings": "Flood (flooded paddy test), 125 g ai/ha, scale 0 to 100, 0 no effect, 100 complete control"}, "[17]": {"settings": "Flood, 31 g ai/ha, scale 0 to 100"}, "[18]": {"settings": "Flood (flooded paddy test), 250 g ai/ha, scale 0 to 100, 0 no effect, 100 complete control"}}, "note": "Read-outs that look alike come from different tables or passages of the source."}
{"smiles": "Cc1cc(-c2ccc(C(F)(F)F)cc2)nn1-c1c(O)cnn(C)c1=O", "note": "[Compound 1, 5-hydroxy-2-methyl-4-[5-methyl-3-[4-(trifluoromethyl)phenyl]-1H-pyrazol-1-yl]-3(2H)-pyridazinone]", "values": [{"measurement": "Plant response rating, Morningglory", "setting": "[1]; [11]", "result": 60}, {"measurement": "Plant response rating, Morningglory", "setting": "[1]; [12]", "result": 0}, {"measurement": "pest or weed control at 1000 g/ha", "setting": "[2]; [13]", "result": 30, "unit": "%"}, {"measurement": "pest or weed control at 1000 g/ha", "setting": "[2]; [14]", "result": 20, "unit": "%"}, {"measurement": "pest or weed control at 1000 g/ha", "setting": "[3]; [13]", "result": 100, "unit": "%"}, {"measurement": "pest or weed control at 1000 g/ha", "setting": "[3]; [14]", "result": 100, "unit": "%"}, {"measurement": "pest or weed control at 1000 g/ha", "setting": "[4]; [13]", "result": 100, "unit": "%"}, {"measurement": "pest or weed control at 1000 g/ha", "setting": "[4]; [14]", "result": 90, "unit": "%"}, {"measurement": "plant injury at 1000 g/ha", "setting": "[5]; [13]", "result": 100, "unit": "%"}, {"measurement": "plant injury at 1000 g/ha", "setting": "[5]; [14]", "result": 90, "unit": "%"}, {"measurement": "pest or weed control at 1000 g/ha", "setting": "[6]; [13]", "result": 100, "unit": "%"}, {"measurement": "pest or weed control at 1000 g/ha", "setting": "[6]; [14]", "result": 100, "unit": "%"}, {"measurement": "Plant response rating, Velvetleaf", "setting": "[7]; [11]", "result": 60}, {"measurement": "Plant response rating, Velvetleaf", "setting": "[7]; [12]", "result": 0}, {"measurement": "Corn plant response rating (crop injury, 0 = no effect, 100 = complete kill) at 1000 g/ha", "setting": "corn (Zea mays); [13]", "result": 100, "unit": "%"}, {"measurement": "Corn plant response rating (crop injury, 0 = no effect, 100 = complete kill) at 1000 g/ha", "setting": "corn (Zea mays); [14]", "result": 100, "unit": "%"}, {"measurement": "pest or weed control at 62 g/ha", "setting": "[8]; Cyperus difformis, Flood (flooded paddy test), 62 g ai/ha, scale 0 to 100, 0 no effect, 100 complete control, read-out: Plant response rating, Sedge, Umbrella", "result": 40, "unit": "%"}, {"measurement": "pest or weed control at 125 g/ha", "setting": "[8]; Cyperus difformis, Flood (flooded paddy test), 125 g ai/ha, scale 0 to 100, 0 no effect, 100 complete control, read-out: Plant response rating, Sedge, Umbrella", "result": 40, "unit": "%"}, {"measurement": "pest or weed control at 250 g/ha", "setting": "[8]; Cyperus difformis, Flood (flooded paddy test), 250 g ai/ha, scale 0 to 100, 0 no effect, 100 complete control, read-out: Plant response rating, Sedge, Umbrella", "result": 60, "unit": "%"}, {"measurement": "pest or weed control at 31 g/ha", "setting": "[8]; Cyperus difformis, Flood, 31 g ai/ha, scale 0 to 100, read-out: Plant response rating, Sedge, Umbrella", "result": 0, "unit": "%"}, {"measurement": "pest or weed control at 62 g/ha", "setting": "[9]; Heteranthera limosa, Flood (flooded paddy test), 62 g ai/ha, scale 0 to 100, 0 no effect, 100 complete control, read-out: Plant response rating, Ducksalad", "result": 0, "unit": "%"}, {"measurement": "pest or weed control at 125 g/ha", "setting": "[9]; Heteranthera limosa, Flood (flooded paddy test), 125 g ai/ha, scale 0 to 100, 0 no effect, 100 complete control, read-out: Plant response rating, Ducksalad", "result": 0, "unit": "%"}, {"measurement": "pest or weed control at 250 g/ha", "setting": "[9]; Heteranthera limosa, Flood (flooded paddy test), 250 g ai/ha, scale 0 to 100, 0 no effect, 100 complete control, read-out: Plant response rating, Ducksalad", "result": 30, "unit": "%"}, {"measurement": "pest or weed control at 31 g/ha", "setting": "[9]; Heteranthera limosa, Flood, 31 g ai/ha, scale 0 to 100, read-out: Plant response rating, Ducksalad", "result": 0, "unit": "%"}, {"measurement": "plant injury at 62 g/ha", "setting": "rice (Oryza sativa); Oryza sativa, Flood (flooded paddy test), 62 g ai/ha, scale 0 to 100, 0 no effect, 100 complete control, read-out: Plant response rating, Rice", "result": 0, "unit": "%"}, {"measurement": "plant injury at 125 g/ha", "setting": "rice (Oryza sativa); Oryza sativa, Flood (flooded paddy test), 125 g ai/ha, scale 0 to 100, 0 no effect, 100 complete control, read-out: Plant response rating, Rice", "result": 0, "unit": "%"}, {"measurement": "plant injury at 250 g/ha", "setting": "rice (Oryza sativa); Oryza sativa, Flood (flooded paddy test), 250 g ai/ha, scale 0 to 100, 0 no effect, 100 complete control, read-out: Plant response rating, Rice", "result": 50, "unit": "%"}, {"measurement": "plant injury at 31 g/ha", "setting": "rice (Oryza sativa); Oryza sativa, Flood, 31 g ai/ha, scale 0 to 100, read-out: Plant response rating, Rice", "result": 0, "unit": "%"}, {"measurement": "pest or weed control at 62 g/ha", "setting": "[10]; Echinochloa crus-galli, Flood (flooded paddy test), 62 g ai/ha, scale 0 to 100, 0 no effect, 100 complete control, read-out: Plant response rating, Barnyardgrass", "result": 0, "unit": "%"}, {"measurement": "pest or weed control at 125 g/ha", "setting": "[10]; Echinochloa crus-galli, Flood (flooded paddy test), 125 g ai/ha, scale 0 to 100, 0 no effect, 100 complete control, read-out: Plant response rating, Barnyardgrass", "result": 20, "unit": "%"}, {"measurement": "pest or weed control at 250 g/ha", "setting": "[10]; Echinochloa crus-galli, Flood (flooded paddy test), 250 g ai/ha, scale 0 to 100, 0 no effect, 100 complete control, read-out: Plant response rating, Barnyardgrass", "result": 60, "unit": "%"}, {"measurement": "pest or weed control at 31 g/ha", "setting": "[10]; Echinochloa crus-galli, Flood, 31 g ai/ha, scale 0 to 100, read-out: Plant response rating, Barnyardgrass", "result": 0, "unit": "%"}]}
{"smiles": "Cc1cc(-c2ccc(C(F)(F)F)cc2)nn1-c1c(OC(=O)C(C)(C)C)cnn(C)c1=O", "note": "[Compound 2]", "values": [{"measurement": "Plant response rating, Morningglory", "setting": "[1]; [11]", "result": 0}, {"measurement": "Plant response rating, Morningglory", "setting": "[1]; [12]", "result": 0}, {"measurement": "Plant response rating, Pigweed", "setting": "[2]; [11]", "result": 0}, {"measurement": "Plant response rating, Pigweed", "setting": "[2]; [12]", "result": 0}, {"measurement": "Plant response rating, Foxtail, Giant", "setting": "[3]; [11]", "result": 90}, {"measurement": "Plant response rating, Foxtail, Giant", "setting": "[3]; [12]", "result": 100}, {"measurement": "Plant response rating, Crabgrass, Large", "setting": "[4]; [11]", "result": 80}, {"measurement": "Plant response rating, Crabgrass, Large", "setting": "[4]; [12]", "result": 100}, {"measurement": "Plant response rating, Wheat", "setting": "[5]; [11]", "result": 90}, {"measurement": "Plant response rating, Wheat", "setting": "[5]; [12]", "result": 90}, {"measurement": "Plant response rating, Barnyardgrass", "setting": "[6]; [11]", "result": 100}, {"measurement": "Plant response rating, Barnyardgrass", "setting": "[6]; [12]", "result": 100}, {"measurement": "Plant response rating, Velvetleaf", "setting": "[7]; [11]", "result": 40}, {"measurement": "Plant response rating, Velvetleaf", "setting": "[7]; [12]", "result": 60}, {"measurement": "Plant response rating, Corn", "setting": "corn (Zea mays); [11]", "result": 90}, {"measurement": "Plant response rating, Corn", "setting": "corn (Zea mays); [12]", "result": 80}, {"measurement": "Plant response rating, Sedge, Umbrella", "setting": "[8]; [15]", "result": 50}, {"measurement": "Plant response rating, Sedge, Umbrella", "setting": "[8]; [16]", "result": 60}, {"measurement": "Plant response rating, Sedge, Umbrella", "setting": "[8]; [17]", "result": 0}, {"measurement": "Plant response rating, Ducksalad", "setting": "[9]; [15]", "result": 0}, {"measurement": "Plant response rating, Ducksalad", "setting": "[9]; [16]", "result": 0}, {"measurement": "Plant response rating, Ducksalad", "setting": "[9]; [18]", "result": 40}, {"measurement": "Plant response rating, Ducksalad", "setting": "[9]; [17]", "result": 0}, {"measurement": "Plant response rating, Rice", "setting": "rice (Oryza sativa); [15]", "result": 15}, {"measurement": "Plant response rating, Rice", "setting": "rice (Oryza sativa); [16]", "result": 15}, {"measurement": "Plant response rating, Rice", "setting": "rice (Oryza sativa); [18]", "result": 45}, {"measurement": "Plant response rating, Rice", "setting": "rice (Oryza sativa); [17]", "result": 0}, {"measurement": "Plant response rating, Barnyardgrass", "setting": "[10]; [15]", "result": 0}, {"measurement": "Plant response rating, Barnyardgrass", "setting": "[10]; [16]", "result": 20}, {"measurement": "Plant response rating, Barnyardgrass", "setting": "[10]; [18]", "result": 45}, {"measurement": "Plant response rating, Barnyardgrass", "setting": "[10]; [17]", "result": 0}]}
